In patent US10221177B2 (HYDRA BIOSCIENCES, INC., priority 2014, dated 2019):

Key:
[1] = system: formalin-induced pain behaviors in the rat; test: Formalin-induced pain test (formalin model), duration of pain behaviors; format: in vivo
Procedure: Exemplary compounds of the invention were tested in the formalin-induced pain test reported by Dubuisson et al., Pain 1977 December; 4(2):161-74 (incorporated herein by reference in its entirety). Briefly, dilute formalin (50 μL of 3% formalin) was injected into the plantar surface of the hind paw of a rat. […] The individual responsible for counting the pain behaviors in a particular study was blinded to the treatment groups.
The initial phase (Phase I: 0-5 min) is thought to have a significant component that is dependent upon direct activation of afferent fibers by formalin and functional TRPA1 (McNamara et al., 2007).
Investigators studied oral administration of compounds of the invention at the doses presented in Table 3 on pain behaviors in the formalin model in the rat. Compounds were formulated as solutions in water with various solvents and excipients including dimethyl sulfoxide (DMSO), polyethylene glycol (15)-hydroxystearate (Solutol®, Sigma-Aldrich), caprylocaproyl macrogol-8 glyceride (Labrasol®, Sigma-Aldrich), polysorbate-80 (Tween®-80, Sigma-Aldrich), and polyoxyl 35 castor oil (Cremophor® EL, BASF Corp.); or suspensions in methylcellulose as indicated in Table 3. Animals were dosed orally with the vehicle, or compounds of the invention one hour prior to intraplantar formalin. […] A decrease over Vehicle indicates a positive result. P values, when indicated, indicate significance compared Vehicle.

[2] = biological target: human TRPA1 (Homo sapiens (Human), UniProt O75762); test: In vitro inhibition of human TRPA1, whole cell patch configuration; format: cell-based; settings: current activation 10 μM AITC, tested concentrations 320 pM to 3.2 μM, read-out: hTRPA1 IC50
Sequence of human TRPA1 (O75762 whole entry, the tested form may be a part): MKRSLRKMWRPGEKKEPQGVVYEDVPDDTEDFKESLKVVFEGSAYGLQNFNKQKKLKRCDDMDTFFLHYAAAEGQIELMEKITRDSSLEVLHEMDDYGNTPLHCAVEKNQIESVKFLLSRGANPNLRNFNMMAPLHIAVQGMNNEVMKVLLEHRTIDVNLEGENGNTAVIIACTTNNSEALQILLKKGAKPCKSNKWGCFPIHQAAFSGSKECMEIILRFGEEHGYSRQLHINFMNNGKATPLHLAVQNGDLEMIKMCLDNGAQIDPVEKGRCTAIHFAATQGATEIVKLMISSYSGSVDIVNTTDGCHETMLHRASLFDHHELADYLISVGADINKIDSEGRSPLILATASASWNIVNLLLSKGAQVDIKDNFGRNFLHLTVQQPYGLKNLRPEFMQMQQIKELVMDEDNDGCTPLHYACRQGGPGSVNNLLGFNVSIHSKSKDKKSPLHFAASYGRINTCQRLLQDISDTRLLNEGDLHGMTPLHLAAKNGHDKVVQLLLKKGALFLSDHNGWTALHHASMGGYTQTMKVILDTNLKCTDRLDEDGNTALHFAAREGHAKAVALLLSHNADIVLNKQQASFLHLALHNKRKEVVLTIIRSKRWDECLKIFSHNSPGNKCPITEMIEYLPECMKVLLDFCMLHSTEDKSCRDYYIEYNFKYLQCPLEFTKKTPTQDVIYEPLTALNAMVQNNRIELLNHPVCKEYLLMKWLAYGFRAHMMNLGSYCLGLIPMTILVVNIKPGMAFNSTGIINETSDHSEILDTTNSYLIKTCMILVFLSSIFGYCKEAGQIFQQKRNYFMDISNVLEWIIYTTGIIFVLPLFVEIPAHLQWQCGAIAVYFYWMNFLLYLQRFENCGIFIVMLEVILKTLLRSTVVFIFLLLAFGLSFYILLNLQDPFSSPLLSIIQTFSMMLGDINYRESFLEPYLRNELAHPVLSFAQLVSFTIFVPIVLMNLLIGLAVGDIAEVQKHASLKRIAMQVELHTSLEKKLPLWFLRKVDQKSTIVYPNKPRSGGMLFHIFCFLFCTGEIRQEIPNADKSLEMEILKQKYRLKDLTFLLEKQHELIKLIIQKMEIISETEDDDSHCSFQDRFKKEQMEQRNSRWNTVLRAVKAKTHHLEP
Summary of the method: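 Whole-cell patch clamp, bath 150 mM NaCl, 10 mM HEPES, 1 mM EGTA, 3 mM MgCl2, pH 7.4 (sometimes 2 mM CaCl2, 1 mM MgCl2). Currents recorded continuously at −60 mV or by 400 ms ramps from −40 mV holding every 4 s; inward/outward currents taken at −80/80 mV, with controlled-temperature focal perfusion.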

[3] = system: CFA-induced cold hypersensitivity of the hind paw; test: CFA-induced pain test, cold hypersensitivity (cold plate paw withdrawal latency); format: in vivo; settings: cold plate 1° C.; for Average PWL Post-Treatment / PWL Change: 1-2 hour pre-treatment; for Average PWL Post-CFA: baseline before dosing
Procedure: Embodiments of the invention may be efficacious in the treatment of inflammatory pain. Compounds of the invention were tested by the CFA-induced pain test method. Compounds were formulated as solutions in water with various solvents and excipients including dimethyl sulfoxide (DMSO), polyethylene glycol (15)-hydroxystearate (Solutol®, Sigma-Aldrich), caprylocaproyl macrogol-8 glyceride (Labrasol®, Sigma-Aldrich), polysorbate-80 (Tween®-80, Sigma-Aldrich), and polyoxyl 35 castor oil (Cremophor® EL, BASF Corp.); or suspensions in methylcellulose as indicated in Table 3 for oral delivery. Briefly, the hind paw was sensitized to cold temperature (allodynic) by administering 0.1 mL of Complete Freund's Adjuvant (CFA) to the right hind paw. Three days later, the time taken for the animal to lift its CFA-injected paw was recorded compared to its un-injected normal left hind paw. […] To avoid tissue damage the maximum cut-off time was 5 minutes. Animals that were allodynic (average PWL to the first three pain behaviors <150 seconds for the CFA-injected hind paw: ˜≥50% difference between the normal and CFA-injected paw) were included in the study and subsequently randomized across treatment groups. The following day, the animals were dosed orally under blinded conditions. Following the 1-2 hour pre-treatment time, the post-dose PWL readings were again taken. The efficacy of the drug treatment was assessed by comparing the PWL in the drug treatment animals to those animals that receive the vehicle. P values, when indicated, indicate significance compared Vehicle.

[4] = 10 mg/kg PO one hour prior to formalin, solution in 4% DMSO, 5% Tween-80, 20% Cremophor EL, 71% water
[5] = 0.3 mg/kg PO, solution in 4% DMSO, 5% Tween-80, 20% Cremophor EL, and 71% water
[6] = 1 mg/kg PO, solution in 4% DMSO, 5% Tween-80, 20% Cremophor EL, and 71% water
[7] = 3 mg/kg PO, solution in 4% DMSO, 5% Tween-80, 20% Cremophor EL, and 71% water
[8] = group 0.3 mg/kg PO, solution in 4% DMSO, 5% Tween-80, 20% Cremophor EL, and 71% water
[9] = group 1 mg/kg PO, solution in 4% DMSO, 5% Tween-80, 20% Cremophor EL, and 71% water
[10] = group 3 mg/kg PO, solution in 4% DMSO, 5% Tween-80, 20% Cremophor EL, and 71% water
[11] = 1 mg/kg PO one hour prior to formalin, solution in 4% DMSO, 5% Tween-80, 20% Cremophor EL, 71% water
[12] = 3 mg/kg PO one hour prior to formalin, solution in 4% DMSO, 5% Tween-80, 20% Cremophor EL, 71% water
[13] = 1 mg/kg PO one hour prior to formalin, suspension in 0.5% methylcellulose
[14] = 3 mg/kg PO one hour prior to formalin, suspension in 0.5% methylcellulose
[15] = 10 mg/kg PO one hour prior to formalin, suspension in 0.5% methylcellulose
[16] = 1 mg/kg PO, suspension in 0.5% methylcellulose
[17] = 3 mg/kg PO, suspension in 0.5% methylcellulose
[18] = 10 mg/kg PO, suspension in 0.5% methylcellulose

Structure (SMILES) | IC50 [2] [nM] | Duration (0-2 Minutes) Average [1, 4] [s] | Duration (0-5 Minutes) Average [1, 4] [s] | Average PWL Post-Treatment [3, 5] | PWL Change [3, 5] [s] | Average PWL Post-Treatment [3, 6] | PWL Change [3, 6] [s] | Average PWL Post-Treatment [3, 7] | PWL Change [3, 7] [s] | Average PWL Post-CFA [3, 8] | Average PWL Post-CFA [3, 9] | Average PWL Post-CFA [3, 10] | Duration (0-2 Minutes) Average [1, 11] [s] | Duration (0-5 Minutes) Average [1, 11] [s] | Duration (0-2 Minutes) Average [1, 12] [s] | Duration (0-5 Minutes) Average [1, 12] [s] | also measured
C[C@@H](C(=O)Nc1csc(-c2cnc(N3CC4CC4C3)nc2)n1)n1cnc2c1c(=O)n(CC#N)c(=O)n2C (stereo partly drawn) [Compound 34, (2S)—N-(2-(2-(3-azabicyclo[3.1.0]hexan-3-yl)pyrimidin-5-yl)thiazol-4-yl)-2-(1-(cyanomethyl)-3-methyl-2,6-dioxo-2,3-dihydro-1H-purin-7(6H)-yl)propanamide] | 1 | 34.9 | 154.6 | 185.6 | 80.7 | 205.4 | 107.4 | 272.6 | 169.0 | 104.9 | 98.0 | 103.6 |  |  |  |  | 
CC(=O)Cn1c(=O)c2c(ncn2[C@@H](C)C(=O)Nc2ccnc(-c3cnc(N4CC5C(C4)C5(F)F)nc3)n2)n(C)c1=O (stereo partly drawn) [Compound 61, (2S)—N-(2′-(6,6-difluoro-3-azabicyclo[3.1.0]hexan-3-yl)-[2,5′-bipyrimidin]-4-yl)-2-(3-methyl-2,6-dioxo-1-(2-oxopropyl)-2,3-dihydro-1H-purin-7(6H)-yl)propanamide] | 8 | 52.8 | 120.0 | 157.1 | 60.9 | 235.4 | 139.4 | 278.5 | 182.7 | 96.2 | 96.0 | 95.8 | 89.4 | 149.3 | 90.3 | 152.3 | 
CC(=O)Cn1c(=O)c2c(ncn2[C@@H](C)C(=O)Nc2csc(-c3ccc(N4CC5C(C4)C5(F)F)nc3)n2)n(C)c1=O (stereo partly drawn) [Compound 79, (2S)—N-(2-(6-(6,6-difluoro-3-azabicyclo[3.1.0]hexan-3-yl)pyridin-3-yl)thiazol-4-yl)-2-(3-methyl-2,6-dioxo-1-(2-oxopropyl)-2,3-dihydro-1H-purin-7(6H)-yl)propanamide] | 3 |  |  |  |  |  |  |  |  |  |  |  |  |  |  |  | Duration (0-2 Minutes) Average [1, 13]: 86.1 s; Duration (0-5 Minutes) Average [1, 13]: 169.8 s; Duration (0-2 Minutes) Average [1, 14]: 86.5 s; Duration (0-5 Minutes) Average [1, 14]: 151.1 s; Duration (0-2 Minutes) Average [1, 15]: 77.3 s; Duration (0-5 Minutes) Average [1, 15]: 142.5 s; Average PWL Post-Treatment [3, 16]: 140.2; PWL Change [3, 16]: 38.0 s; Average PWL Post-Treatment [3, 17]: 201.8; PWL Change [3, 17]: 99.6 s; Average PWL Post-Treatment [3, 18]: 231.5; PWL Change [3, 18]: 129.3 s; Average PWL Post-CFA ([3]; group 1 mg/kg PO, suspension in 0.5% methylcellulose): 102.2; Average PWL Post-CFA ([3]; group 3 mg/kg PO, suspension in 0.5% methylcellulose): 102.2; Average PWL Post-CFA ([3]; group 10 mg/kg PO, suspension in 0.5% methylcellulose): 102.3

Further lines, with some results ahead:

IC50 [2] [nM] | Structure (SMILES) | Duration (0-2 Minutes) Average [1, 4] [s] | Duration (0-5 Minutes) Average [1, 4] [s] | Average PWL Post-Treatment [3, 5] | PWL Change [3, 5] [s] | Average PWL Post-Treatment [3, 6] | PWL Change [3, 6] [s] | Average PWL Post-Treatment [3, 7] | PWL Change [3, 7] [s] | Average PWL Post-CFA [3, 8] | Average PWL Post-CFA [3, 9] | Average PWL Post-CFA [3, 10] | Duration (0-2 Minutes) Average [1, 11] [s] | Duration (0-5 Minutes) Average [1, 11] [s] | Duration (0-2 Minutes) Average [1, 12] [s] | Duration (0-5 Minutes) Average [1, 12] [s] | also measured
6 | CC(=O)Cn1c(=O)c2c(ncn2[C@@H](C)C(=O)Nc2cncc(-c3cnc(N4CC5C(C4)C5(F)F)nc3)n2)n(C)c1=O (stereo partly drawn) [Compound 74, (2S)—N-(6-(2-(6,6-difluoro-3-azabicyclo[3.1.0]hexan-3-yl)pyrimidin-5-yl)pyrazin-2-yl)-2-(3-methyl-2,6-dioxo-1-(2-oxopropyl)-2,3-dihydro-1H-purin-7(6H)-yl)propanamide] | 62.3 | 152.6 | 160.9 | 69.9 | 271.3 | 181.0 | 273.2 | 182.3 | 91.1 | 90.4 | 90.9 | 94.8 | 169.0 | 78.3 | 172.9 | 
5 | CC(=O)Cn1c(=O)c2c(ncn2[C@@H](C)C(=O)Nc2cccc(-c3cnc(C)c(C(F)(F)F)c3)n2)n(C)c1=O [Compound 97, (S)-2-(3-methyl-2,6-dioxo-1-(2-oxopropyl)-2,3-dihydro-1H-purin-7(6H)-yl)-N-(6′-methyl-5′-(trifluoromethyl)-[2,3′-bipyridin]-6-yl)propanamide] | 56.8 | 185.4 | 194.7 | 77.3 | 262.7 | 149.8 | 260.8 | 157.3 | 117.3 | 112.9 | 103.5 | 69.3 | 162.4 | 78.5 | 175.3 | 
15 | Cc1noc(Cn2c(=O)c3c(ncn3[C@@H](C)C(=O)Nc3cccc(-c4cnc(C(F)(F)F)nc4)n3)n(C)c2=O)n1 [Compound 104, (S)-2-(3-methyl-1-((3-methyl-1,2,4-oxadiazol-5-yl)methyl)-2,6-dioxo-2,3-dihydro-1H-purin-7(6H)-yl)-N-(6-(2-(trifluoromethyl)pyrimidin-5-yl)pyridin-2-yl)propanamide] | 56.6 | 128.9 | 190.0 | 84.9 | 295.1 | 190.9 | 281.7 | 176.8 | 105.1 | 104.2 | 104.9 | 98.5 | 167.9 | 70.9 | 140.0 | 
